In patent US8247541B2, “Plant compositions enriched in dehydrosoyasaponin I (D-I) and methods of producing such compositions” (Her Majesty the Queen in right of Canada, as represented by …, priority 2007, dated 2012):
Entries after “also recorded” stand apart in the source; their conditions may differ. Marks after values point to notes of the source that are not given here.

How the values were obtained:
[1] = Light treatment of soyasaponin extracts/solutions followed by HPLC/ELSD (peak area ratio to internal standard alpha-hederin); assay type: physicochemical; details: 80% methanol; for D-I/D-I + S-I + S-VI / HPLC/ELSD component peak area to internal standard ratio, D-I / HPLC/ELSD component peak area to internal standard ratio, S-I / HPLC/ELSD component peak area to internal standard ratio, S-VI / HPLC/ELSD component peak area to internal standard ratio, total soyasaponins / HPLC/ELSD component peak area to internal standard ratio, unretained: 2 days fluorescent light
Description: HPLC and mass spectrometry. HP-20 MeOH samples (N=3) were prepared in 80% methanol at 8 mg/mL ( ? -hederin at 0.25 mg/mL) and syringe filtered (0.45 μm pore size, nylon membrane type, Chromatographic Specialties, Brockville, ON) into 0.25 mL glass autosampler vial inserts (Fisher no. 03-375-3A). The solutions were maintained at 15° C. before injection ([…] volume). The instrument consisted of an Alliance 2690 separations module (Waters Canada, Mississauga, ON) equipped with vacuum solvent degassing, a Waters 996 photodiode array detector (PDA) and a PL-EMD-960 evaporative light scattering detector (ELSD) (Polymer Laboratories, Amherst, Mass.) controlled by Waters Millennium software. Settings for the ELSD were attenuation=1, time constant=1 second, temperature=90°, PMT level=6 and airflow=4 liters/min. A reversed phase C-18 Symmetry™ column (3.0×150 mm, 5 μm particle size) purchased from Waters Canada and maintained at 30° C. was used. The mobile phase consisted of 0.05% trifluoroacetic acid (TFA) in water (solvent A) and 0.05% TFA in acetonitrile (solvent B), delivered at a flow rate of 0.4 mL/min. The gradient elution program consisted of 95% A and 5% B at time 0. After 10 min, the composition was 65% A and 35% B (linear, curve 6 gradient). At that time, the linear gradient progressed to 50% A and 50% B over 15 min and to 5% A-95% B over 5 min before reverting to 95% A and 5% B from 35 to 43 min. Mean values of the peak area ratios from single analysis of the three samples from each variety were reported. […]
To further investigate the possibility of S-VI undergoing visible-light-mediated phototransformation to D-I, a source of the unstable S-VI was required as well as other chromatographic fractions that might contain a photosensitizer. Starting with defatted Amit chickpea flour and with brief (minimal) exposure to visible laboratory light, we therefore isolated by the traditional hot methanol and Diaion HP-20 procedures (of Table 1) a dried HP-20 MeOH extract containing S-VI. The earlier-eluting aqueous methanol fractions (also isolated in powder form) were additionally obtained as a potential source of the photosensitizer, in addition to the chloroform extract from the defatting step. Three extraction and isolation experiments were completed (prep A, B and E). Aqueous methanol fractions (30% MeOH and <30% MeOH) containing non-saponin components (see example 7) were additionally available from an experiment on the same flour but these fractions had been isolated after exposure of the crude methanol extract to light (see Table 7).
Three concentrations of a 30% MeOH isolate were used for comparison (two concentrations were previously employed in Table 10). […] D-I to internal standard ratios were 3.3-4, equivalent to the ratios obtained in tests 3 and 4 with the aqueous methanol additions (see also trial 3 of Table 10).

[2] = Solubility of photosensitizer in extraction solvents; assay type: physicochemical
[3] = target: calcium-dependent potassium channels (Homo sapiens, UniProt Q12791+Q16558); details: cited from earlier work
Sequence of calcium-dependent potassium channels (Q12791 whole entry): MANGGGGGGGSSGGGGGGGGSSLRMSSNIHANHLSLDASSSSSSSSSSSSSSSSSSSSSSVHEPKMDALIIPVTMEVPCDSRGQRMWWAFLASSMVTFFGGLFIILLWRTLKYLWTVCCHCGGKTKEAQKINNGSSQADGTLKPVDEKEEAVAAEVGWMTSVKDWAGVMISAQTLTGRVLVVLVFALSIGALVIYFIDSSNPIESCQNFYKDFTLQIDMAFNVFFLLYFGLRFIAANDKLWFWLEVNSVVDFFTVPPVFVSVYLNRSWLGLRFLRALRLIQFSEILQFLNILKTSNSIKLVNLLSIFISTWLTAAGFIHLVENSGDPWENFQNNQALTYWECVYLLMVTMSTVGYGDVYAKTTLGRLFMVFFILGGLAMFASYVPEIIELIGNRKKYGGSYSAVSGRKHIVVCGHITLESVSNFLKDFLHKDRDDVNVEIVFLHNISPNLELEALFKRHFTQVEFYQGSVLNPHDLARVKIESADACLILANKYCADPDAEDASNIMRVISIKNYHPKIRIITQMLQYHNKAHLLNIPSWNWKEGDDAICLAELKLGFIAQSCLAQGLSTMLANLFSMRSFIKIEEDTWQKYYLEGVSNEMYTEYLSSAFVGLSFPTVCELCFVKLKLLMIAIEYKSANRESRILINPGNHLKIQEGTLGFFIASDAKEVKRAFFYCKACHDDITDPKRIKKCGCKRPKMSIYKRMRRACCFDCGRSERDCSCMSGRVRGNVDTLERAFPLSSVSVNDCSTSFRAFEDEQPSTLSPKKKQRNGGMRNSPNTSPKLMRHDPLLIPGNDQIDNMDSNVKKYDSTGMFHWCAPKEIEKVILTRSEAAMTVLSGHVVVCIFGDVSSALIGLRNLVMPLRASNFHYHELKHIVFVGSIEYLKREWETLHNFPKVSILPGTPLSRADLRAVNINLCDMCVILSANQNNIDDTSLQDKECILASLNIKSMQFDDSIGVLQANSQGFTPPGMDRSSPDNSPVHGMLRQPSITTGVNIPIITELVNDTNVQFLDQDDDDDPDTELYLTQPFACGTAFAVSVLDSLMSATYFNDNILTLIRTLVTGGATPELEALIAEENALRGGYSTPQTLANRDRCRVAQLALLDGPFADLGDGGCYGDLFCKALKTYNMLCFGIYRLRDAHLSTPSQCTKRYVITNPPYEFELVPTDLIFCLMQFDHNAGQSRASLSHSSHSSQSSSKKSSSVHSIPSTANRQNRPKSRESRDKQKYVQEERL
Sequence of calcium-dependent potassium channels (Q16558 whole entry): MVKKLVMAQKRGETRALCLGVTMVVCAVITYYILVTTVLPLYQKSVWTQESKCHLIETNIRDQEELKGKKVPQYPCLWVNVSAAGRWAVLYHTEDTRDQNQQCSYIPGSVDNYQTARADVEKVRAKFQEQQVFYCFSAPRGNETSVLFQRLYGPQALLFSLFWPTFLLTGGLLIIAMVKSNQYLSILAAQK

[4] = system: stored product insect pests; details: D-I isolated from pea; cited from earlier work
[5] = potential photosensitizer 10 μM added to 100% MeOH fraction (3 mg) of Amit chickpea
[6] = potential photosensitizer 50 μM added to 100% MeOH fraction (3 mg) of Amit chickpea
[7] = potential photosensitizer 100 μM added to 100% MeOH fraction (3 mg) of Amit chickpea
[8] = potential photosensitizer 50 μM added to 100% MeOH (2.98 mg) + 30% MeOH (4.47-4.58 mg) fractions

Row | Molecule | D-I/D-I + S-I + S-VI [1, 5] | HPLC/ELSD component peak area to internal standard ratio, D-I [1, 5] | HPLC/ELSD component peak area to internal standard ratio, S-I [1, 5] | HPLC/ELSD component peak area to internal standard ratio, S-VI [1, 5] | HPLC/ELSD component peak area to internal standard ratio, total soyasaponins [1, 5] | HPLC/ELSD component peak area to internal standard ratio, unretained [1, 5] | D-I/D-I + S-I + S-VI [1, 6] | HPLC/ELSD component peak area to internal standard ratio, D-I [1, 6] | HPLC/ELSD component peak area to internal standard ratio, S-I [1, 6] | HPLC/ELSD component peak area to internal standard ratio, S-VI [1, 6] | HPLC/ELSD component peak area to internal standard ratio, total soyasaponins [1, 6] | HPLC/ELSD component peak area to internal standard ratio, unretained [1, 6] | D-I/D-I + S-I + S-VI [1, 7] | HPLC/ELSD component peak area to internal standard ratio, D-I [1, 7] | HPLC/ELSD component peak area to internal standard ratio, S-I [1, 7] | HPLC/ELSD component peak area to internal standard ratio, S-VI [1, 7] | HPLC/ELSD component peak area to internal standard ratio, total soyasaponins [1, 7] | HPLC/ELSD component peak area to internal standard ratio, unretained [1, 7] | other results
1 | Cc1cc2nc3c(=O)[nH]c(=O)nc-3n(C[C@H](O)[C@H](O)[C@H](O)COP(=O)(O)O)c2cc1C [FMN] | 0.3 | 3.3 | 6.5 | <0.003 | 9.9 | 4.8 | 0.4 | 2.9 | 4.5 | <0.003 | 7.4 | 5.1 | 0.5 | 1.8 | 0.3^f | <0.003 | 2.1 | 6.5 | –
2 | Cc1cc2nc3c(=O)[nH]c(=O)nc-3n(C[C@H](O)[C@H](O)[C@H](O)COP(=O)(O)OP(=O)(O)OC[C@H]3O[C@@H](n4cnc5c(N)ncnc54)[C@H](O)[C@@H]3O)c2cc1C [FAD] | 0.3 | 3.3 | 6.8 | <0.003 | 10.1 | 5.1 | 0.4 | 3.0 | 5.5 | <0.003 | 8.6 | 5.6 | 0.4 | 2.8 | 4.0 | <0.003 | 6.7 | 6.9 | –
3 | Cc1cc2nc3c(=O)[nH]c(=O)nc-3n(C[C@H](O)[C@H](O)[C@H](O)CO)c2cc1C [riboflavin] | – | – | – | – | – | – | – | – | – | – | – | – | – | – | – | – | – | – | solubility in 80% methanol ([2]; 80% methanol): soluble; solubility in chloroform ([2]; chloroform): sparingly soluble
4 | COc1c2ccoc2cc2oc(=O)ccc12 [bergapten] | 0.1 | 1.6 | 8.2 | 1.2 | 11.0 | 4.8 | 0.1 | 1.2 | 6.0 | 1.2 | 8.4 | 3.8 | 0.2 | 1.7 | 8.0 | 1.4 | 11.1 | 4.4 | D-I/D-I + S-I + S-VI [1, 8]: 0.3; HPLC/ELSD component peak area to internal standard ratio, D-I [1, 8]: 3.6; HPLC/ELSD component peak area to internal standard ratio, S-I [1, 8]: 7.4; HPLC/ELSD component peak area to internal standard ratio, S-VI [1, 8]: <0.003; HPLC/ELSD component peak area to internal standard ratio, total soyasaponins [1, 8]: 11.0; HPLC/ELSD component peak area to internal standard ratio, unretained [1, 8]: 70.7
5 | CC1=C(O)C(=O)C[C@H](O[C@@H]2CC(C)(C)C[C@H]3C4=CC[C@@H]5[C@@]6(C)CC[C@H](O[C@@H]7O[C@H](C(=O)O)[C@@H](O)[C@H](O)[C@H]7O[C@@H]7O[C@H](CO)[C@H](O)[C@H](O)[C@H]7O[C@@H]7O[C@@H](C)[C@H](O)[C@@H](O)[C@H]7O)[C@](C)(CO)[C@@H]6CC[C@@]5(C)[C@]4(C)CC[C@@]23C)O1 [S-VI, soyasaponin VI] | – | – | – | – | – | – | – | – | – | – | – | – | – | – | – | – | – | – | stability to fluorescent light ([1]; laboratory fluorescent light levels, room temperature, a few days): labile
6 | dehydrosoyasaponin I [D-I] | – | – | – | – | – | – | – | – | – | – | – | – | – | – | – | – | – | – | activity on calcium-dependent (calcium-activated) potassium channels ([3]; D-I isolated from leaves of Desmodium adscendens): high-affinity activator; also recorded: potent calcium-activated potassium channel opener; potency as a potassium channel opener relative to S-I ([3]; compared with S-I): 60 fold; insecticidal and antifeedant properties [4]: insecticidal and antifeedant properties
